Source: publication PMC3914206

Assays:
Format in all cases: binding
[1] = molecular target: T1, panel of 442 kinases (Homo sapiens, UniProt P51617); details: Compound Concentration 10 µM
T1 construct: purchased KINOMEscan
From the text: (§1) We assessed the selectivity of members of this scaffold using the KINOMEscan methodology across a near comprehensive panel of 442 kinases [[18,27]].

[2] = molecular target: T2, panel of 442 kinases (Homo sapiens, UniProt Q9NY57); details: kinase YANK2; compound concentration 10 µM
T2 construct: purchased KINOMEscan
From the text: as §1

[3] = molecular target: T3, panel of 442 kinases (Homo sapiens, UniProt P36888, D835H); details: Compound Concentration 10 µM
T3 construct: purchased KINOMEscan
T3 sequence (P36888 27-993 D835H): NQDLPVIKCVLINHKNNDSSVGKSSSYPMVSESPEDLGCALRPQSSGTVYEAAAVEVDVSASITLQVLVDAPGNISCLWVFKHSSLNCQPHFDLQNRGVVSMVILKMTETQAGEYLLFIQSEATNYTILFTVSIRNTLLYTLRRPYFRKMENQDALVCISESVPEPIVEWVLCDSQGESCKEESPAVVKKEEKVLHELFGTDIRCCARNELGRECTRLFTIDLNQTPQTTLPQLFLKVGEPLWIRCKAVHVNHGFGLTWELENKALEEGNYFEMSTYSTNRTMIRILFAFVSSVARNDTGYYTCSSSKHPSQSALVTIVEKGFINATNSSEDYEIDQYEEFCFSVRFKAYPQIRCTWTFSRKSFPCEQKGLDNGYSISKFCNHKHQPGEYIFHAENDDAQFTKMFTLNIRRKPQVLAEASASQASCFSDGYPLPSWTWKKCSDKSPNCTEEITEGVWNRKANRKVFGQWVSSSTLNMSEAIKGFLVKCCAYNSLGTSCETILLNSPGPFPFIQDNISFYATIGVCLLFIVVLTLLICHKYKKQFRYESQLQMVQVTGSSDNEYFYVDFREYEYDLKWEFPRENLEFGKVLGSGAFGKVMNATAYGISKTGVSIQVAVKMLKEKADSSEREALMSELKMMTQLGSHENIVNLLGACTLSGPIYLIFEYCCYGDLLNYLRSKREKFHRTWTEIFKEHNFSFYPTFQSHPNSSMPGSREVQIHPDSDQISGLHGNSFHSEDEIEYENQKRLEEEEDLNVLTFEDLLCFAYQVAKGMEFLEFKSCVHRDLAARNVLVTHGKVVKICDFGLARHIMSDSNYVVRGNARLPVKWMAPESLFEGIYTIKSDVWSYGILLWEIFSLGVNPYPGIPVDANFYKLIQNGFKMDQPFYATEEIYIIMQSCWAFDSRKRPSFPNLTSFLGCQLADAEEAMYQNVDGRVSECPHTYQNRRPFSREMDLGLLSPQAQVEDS
From the text: as §1

T2 sequence (Q9NY57 whole entry): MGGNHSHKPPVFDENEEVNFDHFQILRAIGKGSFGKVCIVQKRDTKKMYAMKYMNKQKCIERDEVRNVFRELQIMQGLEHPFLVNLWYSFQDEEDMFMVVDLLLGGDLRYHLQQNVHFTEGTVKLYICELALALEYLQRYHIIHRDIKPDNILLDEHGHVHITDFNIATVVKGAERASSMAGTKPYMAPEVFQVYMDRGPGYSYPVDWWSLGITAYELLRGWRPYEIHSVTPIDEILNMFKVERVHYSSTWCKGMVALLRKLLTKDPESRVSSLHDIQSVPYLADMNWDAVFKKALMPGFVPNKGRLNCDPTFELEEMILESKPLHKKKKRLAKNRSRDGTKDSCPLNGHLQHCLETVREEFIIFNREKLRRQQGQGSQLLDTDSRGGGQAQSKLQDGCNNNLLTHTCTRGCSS
T1 sequence (P51617 whole entry): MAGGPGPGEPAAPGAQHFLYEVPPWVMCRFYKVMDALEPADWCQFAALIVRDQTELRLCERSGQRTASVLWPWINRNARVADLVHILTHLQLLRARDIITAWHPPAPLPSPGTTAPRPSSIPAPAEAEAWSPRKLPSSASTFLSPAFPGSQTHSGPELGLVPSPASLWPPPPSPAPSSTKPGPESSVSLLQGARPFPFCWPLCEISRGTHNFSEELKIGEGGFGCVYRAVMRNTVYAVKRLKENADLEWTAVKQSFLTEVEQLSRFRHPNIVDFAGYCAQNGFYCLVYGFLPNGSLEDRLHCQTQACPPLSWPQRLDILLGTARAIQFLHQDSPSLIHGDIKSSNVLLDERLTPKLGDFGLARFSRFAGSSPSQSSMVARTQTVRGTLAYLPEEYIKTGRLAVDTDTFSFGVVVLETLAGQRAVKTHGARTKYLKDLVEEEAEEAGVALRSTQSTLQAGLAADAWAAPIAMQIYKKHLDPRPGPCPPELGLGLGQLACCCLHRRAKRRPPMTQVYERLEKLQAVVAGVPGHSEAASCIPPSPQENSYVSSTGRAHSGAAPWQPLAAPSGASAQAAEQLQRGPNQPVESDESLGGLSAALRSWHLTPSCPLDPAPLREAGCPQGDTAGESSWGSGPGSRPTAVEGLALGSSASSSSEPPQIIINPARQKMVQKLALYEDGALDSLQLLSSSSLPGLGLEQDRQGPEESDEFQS

| SMILES | KINOMEscan: IRAK1 [1] | % Ctrl, YANK2 [2] | KINOMEscan: FLT3(D835H) [3] |
| --- | --- | --- | --- |
| COc1cc(C(=O)N2CCC(N3CCN(C)CC3)CC2)ccc1Nc1ncc2c(n1)N1CCc3cccc(c31)C(=O)N2C [Compound 24] | 95 | 100 % Ctrl | – |
| CCOc1cc(C(=O)N2CCC(N3CCN(C)CC3)CC2)ccc1Nc1ncc2c(n1)N(C1CCCC1)c1ccccc1C(=O)N2C [Compound 26] | 100 | 100 % Ctrl | 100 |
| COc1cc(C(=O)N2CCC(N3CCN(C)CC3)CC2)ccc1Nc1ncc2c(n1)N(C1CCCC1)c1ccccc1C(=O)N2C [Compound 25, 11-cyclopentyl-2-((2-methoxy-4-(4-(4-methylpiperazin-1-yl)piperidine-1-carbonyl)phenyl)amino)-5-methyl-5H-benzo[e]pyrimido[5,4-b][1,4]diazepin-6(11H)-one] | 89 | 100 % Ctrl | 100 |
| COc1cc(C(=O)N2CCC(N3CCN(C)CC3)CC2)ccc1Nc1ncc2c(n1)N(C)c1ccccc1C(=O)N2C [15 (LRRK2-IN-1)] | 100 | 100 % Ctrl | 100 |
